# What was measured:
# [1] = system: platelets; experiment: platelet-bead binding assay; format: cell-based; details: 10 minutes, 30 minutes or 2 hours
# Experimental: HECFCs, HCAECs and HMVECs were cultured in EC expansion medium EGM-2 and THP-1 monocytes were cultured in RPMI Medium 1640 (Gibco) supplemented with 10% fetal bovine serum (FBS, Hyclone) and 0.05 mM 2-mercaptoethanol (Sigma). αvβ3-K562 cells and αIIbβ3-K562 cells were cultured in RPMI Medium 1640 plus 10% FBS. Platelet-rich plasma (PRP) was obtained from UC Davis Medical Center (Sacramento, Calif.). Fresh PRP (260×10^3 platelets/μL) was centrifuged, and the pellets were resuspended in Dulbecco's Phosphate Buffer Saline (DPBS; Hyclone) containing 2 mM CaCl2) and MgCl2 to a final concentration of 1×10^8 platelets/mL.
# HECFCs, HCAECs, HMVECs and THP-1 monocytes were cultured in their respective growth medium as described in Example 1. For cell bead-binding assay, 6×10^5 HECFCs, HCAECs, HMVECs or THP-1 monocytes in 2 mL of their respective culture medium were added to an ultra-low attachment 35-mm petri dish (Corning Incorporated) followed by resin beads (Lam et al. (1991) Nature 354:82). The dishes were incubated in a shaking incubator at 37° C., 5% CO2 for various time points at 40 rpm. For platelet bead-binding assay, the platelets isolated as described in Example 1 were added to an ultra-low attachment 35-mm petri dish and incubated with the resin beads in the shaking incubator as described for the cell-bead binding assy. […]
# [2] = system: HECFCs; experiment: flow cytometry ligand-cell binding, HECFCs; design: species or system human; details: biotinylated ligand 1 μM, streptavidin-phycoerythrin
# Experimental: (§1) FIG. 10 presents flow cytometry data from an assay of binding affinity of LXW7 and GRGD (SEQ ID NO: 1) to different cell types. Tests included EPCs/ECs from different sources, including HECFCs (A), HCAECs (B), HMVECs (C), and THP-1 monocytes (D), Platelets (E), as well as K562 cells engineered to highly express αvβ3 (αvβ3-K562, F), and αIIbβ3 (αIIbβ3-K562, G). Cells were incubated with the LXW7-bio, GRGD-bio (SEQ ID NO: 1), or D-Biotin peptide and subsequently incubated with streptavidin-phycoerythrin. Flow cytometry analysis was performed to determine the binding affinity of the ligands. Samples treated with D-biotin were used as negative controls.
# (§2) LXW7-bio (1 μM) was incubated with 3×10^5 HECFCs, HCAECs, HMVECs, αvβ3-K562 and αIIbβ3-K562 cells and THP-1 monocytes and 1×10^8 platelets in binding buffer (HEPES containing 10% FBS) on ice for 30 minutes. The samples were washed three times with DPBS containing 1% FBS and incubated with 2 μg/ml of streptavidin-phycoerythrin on ice for 30 minutes and then washed with DPBS. Samples were analyzed on a BD Fortessa LSR Cell Analyzer and further data analysis and gating were performed using FlowJo software (Treestar, Inc.).
# [3] = system: HCAECs; experiment: flow cytometry ligand-cell binding, HCAECs; design: species or system human; details: biotinylated ligand 1 μM, streptavidin-phycoerythrin
# Experimental: as §1, §2
# [4] = system: HMVECs; experiment: flow cytometry ligand-cell binding, HMVECs; design: species or system human; details: biotinylated ligand 1 μM, streptavidin-phycoerythrin
# Experimental: as §1, §2
# [5] = molecular target: T1, integrin αIIbβ3 (Homo sapiens, UniProt P05106+P08514); experiment: flow cytometry ligand-cell binding, αIIbβ3-K562 cells; details: K562 cells highly expressing αIIbβ3
# T1 construct: expressed in transfected cells; host or cells: K562 myeloid leukemia cells (αIIbβ3-K562), provided by Dr. Jennifer Cochran (Stanford University)
# Experimental: as §1
# Human coronary artery endothelial cells (HCAECs) were purchased from ATCC. Human cardiac microvascular endothelial cells (HMVECs) were purchased from Lonza. THP-1 monocytes were obtained from Dr. Pamela Lein (University of California, Davis). […]
# as §2, with “The samples were washed three times with DPBS containing 1% FBS and incubated with 2 μg/ml of streptavidin-phycoerythrin on ice for 30 minutes and then washed with DPBS.” left out
# [6] = system: ERK1/2; experiment: Western-blot analysis, phosphorylation of ERK1/2; format: cell-based, human; details: LXW7 treated surface, 96 hours, vs D-biotin
# Experimental: The 100-mm dishes from Example 2 were treated with Avidin followed by LXW7-bio or D-biotin as described in Example 5. 8×10^5 HCAECs were seeded per dish and cultured in EGM-2 media for 4 days. Cells were lysed using Extraction Kit (Thermo Fisher Scientific) and protein concentrations were determined using BCA Protein Assay (Thermo Fisher Scientific). Fifteen μg of each sample were loaded and separated using a 4-12% Bis-Tris NuPAGE gel (Thermo Fisher Scientific) and transferred to a nitrocellulose membrane. The membrane was blocked in 5% BSA in TBST (Tris-buffered saline with 0.5% Tween-20), and subsequently incubated with primary antibodies anti-VEGF Receptor 2, anti-Phospho-VEGF Receptor 2, anti-p44/42 MAPK (Erk1/2) and anti-Phospho-p44/42 MAPK (Erk1/2) (Thr202/Tyr204), all purchased from Cell Signaling Technologies, in 1% BSA overnight at 4° C. After washing three times with TBST, the membranes were incubated with respective horseradish peroxidase-conjugated secondary antibodies in 1% non-fat dry milk in TBST (BioRad) for 1 hour at room temperature. After washing, the protein bands were visualized using West Dura Substrate (Thermo Fisher Scientific) and quantified using Image J software.
substance,measurement,setting,value
cGRGDdvc [LXW7],attachment of platelets to beads displaying LXW7,[1],did not support effective attachment
same,binding affinity to HECFCs by flow cytometry,[2],higher binding affinity with different types of EPCs/ECs than conventional GRGD peptide
same,binding affinity to HCAECs by flow cytometry,[3],higher binding affinity with different types of EPCs/ECs than conventional GRGD peptide
same,binding affinity to HMVECs by flow cytometry,[4],higher binding affinity with different types of EPCs/ECs than conventional GRGD peptide
same,binding to αIIbβ3-K562 cells by flow cytometry,[5],very low binding
same,phosphorylation of ERK1/2 in ECs,[6],significantly increased

# Reference: patent US11246961B2, “Engineered scaffolds for vascularized tissue repair” (The Regents of the University of California, priority 2016, dated 2022)
